# Measurements: ChEMBL document CHEMBL5113538, “Discovery of Novel Allosteric EGFR L858R Inhibitors for the Treatment of Non-Small-Cell Lung Cancer as a Single Agent or in Combination with Osimertinib” (J Med Chem, 2022)
# What was measured:
# D(2) dopamine receptor [1] = target: T1, D(2) dopamine receptor (Homo sapiens, UniProt P14416); test: Inhibition of dopamine D2 receptor (unknown origin) at 10 uM relative to control
# [2] = AUC(0 to t) in CD1 mouse at 1 mg/kg, iv administered as single dose measured after 24 hrs by LC-MS/MS analysis; type: ADME, organism-based; design: time 24 hrs, dose 1 mg/kg, route iv; conditions: in vivo
# BaF3 [3] = test: Cytotoxicity against mouse BaF3 cells expressing EGFR L858R/T790M/C797S mutant assessed as reduction in cell viability measured after 72 hrs by cell titre glo luminescence assay; type: functional, cell-based; conditions: BaF3, 72 h
# BaF3 [4] = test: Antitumor activity against mouse BaF3 cells harboring EGFR L858R/C797S mutant allografted in Balb/c nude mouse assessed as in tumor growth inhibition at 10 mg/kg, po administered twice daily measured on day 20; type: functional; conditions: BaF3, 480 h, time 20 day, read-out: TGI
# [5] = Terminal half life in CD1 mouse at 1 mg/kg, iv administered as single dose measured after 24 hrs by LC-MS/MS analysis; type: ADME, organism-based; conditions: in vivo, read-out: beta t1/2 (converted)
# [6] = target: T2, Muscarinic acetylcholine receptor M2 (Homo sapiens) (UniProt P08172); test: Inhibition of muscarinic M2 receptor (unknown origin) at 10 uM relative to control
# T2 sequence (whole entry): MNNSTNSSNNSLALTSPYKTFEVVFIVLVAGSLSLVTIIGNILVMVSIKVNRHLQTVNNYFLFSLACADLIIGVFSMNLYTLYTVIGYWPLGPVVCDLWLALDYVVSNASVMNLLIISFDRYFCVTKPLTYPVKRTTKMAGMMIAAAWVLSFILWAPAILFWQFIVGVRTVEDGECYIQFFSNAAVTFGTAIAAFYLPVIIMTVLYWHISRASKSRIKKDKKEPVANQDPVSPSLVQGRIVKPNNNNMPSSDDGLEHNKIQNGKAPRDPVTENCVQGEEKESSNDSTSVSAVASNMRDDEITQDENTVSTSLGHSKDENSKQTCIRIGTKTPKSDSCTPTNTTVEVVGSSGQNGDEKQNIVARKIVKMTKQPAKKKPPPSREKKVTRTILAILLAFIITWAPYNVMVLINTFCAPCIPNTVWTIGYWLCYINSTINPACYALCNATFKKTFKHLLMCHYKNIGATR
# [7] = Toxicity in Balb/c nude mouse xenografted with human NCI-H1975 cells harboring EGFR L858R/T790M mutant assessed as change in body weight at 10 mg/kg, po administered twice daily measured after 14 days; type: organism-based; conditions: in vivo, 336 h, time 14 day
# Adenosine receptor A3 = target: T3, Adenosine receptor A3 (Homo sapiens, UniProt P0DMS8); test: Inhibition of adenosine A3 receptor (unknown origin)
# T3 sequence (P0DMS8 whole entry): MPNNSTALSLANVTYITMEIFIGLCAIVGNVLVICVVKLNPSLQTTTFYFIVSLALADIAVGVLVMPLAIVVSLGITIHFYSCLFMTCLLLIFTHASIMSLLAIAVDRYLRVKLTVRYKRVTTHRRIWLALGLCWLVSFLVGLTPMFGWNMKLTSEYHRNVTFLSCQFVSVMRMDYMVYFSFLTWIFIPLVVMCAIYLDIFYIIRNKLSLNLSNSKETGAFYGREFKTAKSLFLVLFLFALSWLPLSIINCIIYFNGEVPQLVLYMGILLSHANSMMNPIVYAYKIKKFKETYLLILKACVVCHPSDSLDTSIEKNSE
# NCI-H1975 [8] = test: Antitumor activity against human NCI-H1975 cells harboring EGFR L858R/T790M mutant xenografted in Balb/c nude mouse assessed as in tumor growth inhibition at 10 mg/kg, po administered twice daily measured after 14 days; type: functional; conditions: NCI-H1975, 336 h, time 14 day, read-out: TGI
# [9] = target: T4, Adenosine receptor A3 (Homo sapiens) (UniProt P0DMS8); test: Inhibition of adenosine A3 receptor (unknown origin) at 10 uM relative to control
# T4 sequence (whole entry): T3 sequence (P0DMS8 whole entry)
# [10] = target: Angiotensin-converting enzyme (Homo sapiens, UniProt P12821); test: Inhibition of angiotensin converting enzyme (unknown origin) at 10 uM relative to control
# [11] = Oral bioavailability in CD1 mouse at 10 mg/kg administered as single dose measured after 24 hrs by LC-MS/MS analysis; type: ADME, organism-based; conditions: in vivo
# BaF3 [12] = test: Antitumor activity against mouse BaF3 cells harboring EGFR L858R/C797S mutant allografted in Balb/c nude mouse assessed as in tumor growth inhibition at 10 mg/kg, po administered twice daily measured after 6 days; type: functional; conditions: BaF3, 144 h, time 6 day, read-out: TGI
# [13] = target: T5, Muscarinic acetylcholine receptor M2 (Homo sapiens, UniProt P08172); test: Inhibition of muscarinic M2 receptor (unknown origin)
# T5 sequence (P08172 whole entry): T2 sequence (whole entry)
# [14] = target: T6, Glucocorticoid receptor (Homo sapiens) (UniProt P04150); test: Inhibition of glucocorticoid receptor (unknown origin) at 10 uM relative to control
# T6 sequence (whole entry): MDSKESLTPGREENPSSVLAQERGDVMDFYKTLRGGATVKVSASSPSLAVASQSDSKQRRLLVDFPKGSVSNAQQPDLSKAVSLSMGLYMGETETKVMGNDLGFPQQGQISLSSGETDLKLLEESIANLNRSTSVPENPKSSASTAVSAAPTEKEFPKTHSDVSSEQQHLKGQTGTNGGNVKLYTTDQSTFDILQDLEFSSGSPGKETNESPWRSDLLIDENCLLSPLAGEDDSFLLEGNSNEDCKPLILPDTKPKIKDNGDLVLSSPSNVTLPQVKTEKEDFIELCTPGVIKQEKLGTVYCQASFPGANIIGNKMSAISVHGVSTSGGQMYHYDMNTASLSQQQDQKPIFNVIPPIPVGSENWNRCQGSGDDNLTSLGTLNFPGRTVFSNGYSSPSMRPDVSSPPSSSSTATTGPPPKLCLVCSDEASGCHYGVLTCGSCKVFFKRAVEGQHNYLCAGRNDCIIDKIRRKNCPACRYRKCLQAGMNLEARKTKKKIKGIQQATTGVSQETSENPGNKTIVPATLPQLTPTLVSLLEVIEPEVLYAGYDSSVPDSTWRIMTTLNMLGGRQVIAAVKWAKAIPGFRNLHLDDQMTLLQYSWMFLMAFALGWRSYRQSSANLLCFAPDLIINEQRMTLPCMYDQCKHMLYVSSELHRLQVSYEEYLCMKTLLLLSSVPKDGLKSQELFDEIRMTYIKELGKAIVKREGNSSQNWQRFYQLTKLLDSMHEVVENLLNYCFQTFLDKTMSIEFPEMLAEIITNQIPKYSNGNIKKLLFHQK
# D(2) dopamine receptor [15] = target: T1, D(2) dopamine receptor; test: Inhibition of dopamine D2 receptor (unknown origin)
# [16] = Tlast in CD1 mouse at 1 mg/kg, iv administered as single dose measured after 24 hrs by LC-MS/MS analysis; type: ADME, organism-based; conditions: in vivo
# [17] = Cmax in CD1 mouse at 10 mg/kg, po administered as single dose measured after 24 hrs by LC-MS/MS analysis; type: ADME, organism-based; design: dose 10 mg/kg, time 24 hrs, route po; conditions: in vivo
# NCI-H1975 [18] = test: Antitumor activity against human NCI-H1975 cells harboring EGFR L858R/T790M mutant xenografted in Balb/c nude mouse assessed as in tumor growth inhibition at 10 mg/kg, po administered once daily measured after 14 days in presence of osimertinib; type: functional; conditions: NCI-H1975, 336 h, time 14 day, read-out: TGI
# T1 sequence (P14416 whole entry): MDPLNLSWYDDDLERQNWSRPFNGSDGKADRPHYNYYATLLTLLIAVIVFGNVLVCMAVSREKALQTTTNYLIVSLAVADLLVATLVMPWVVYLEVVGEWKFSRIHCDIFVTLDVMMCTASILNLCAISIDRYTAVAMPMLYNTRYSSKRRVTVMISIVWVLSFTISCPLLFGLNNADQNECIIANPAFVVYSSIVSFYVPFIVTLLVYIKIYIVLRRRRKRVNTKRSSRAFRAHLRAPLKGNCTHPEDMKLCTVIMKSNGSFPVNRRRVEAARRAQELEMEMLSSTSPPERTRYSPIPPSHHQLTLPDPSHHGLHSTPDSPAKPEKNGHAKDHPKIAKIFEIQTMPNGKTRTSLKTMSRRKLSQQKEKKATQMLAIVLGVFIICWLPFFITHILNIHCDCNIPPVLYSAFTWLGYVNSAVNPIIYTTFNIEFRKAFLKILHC
# Angiotensin-converting enzyme, sequence (P12821 whole entry): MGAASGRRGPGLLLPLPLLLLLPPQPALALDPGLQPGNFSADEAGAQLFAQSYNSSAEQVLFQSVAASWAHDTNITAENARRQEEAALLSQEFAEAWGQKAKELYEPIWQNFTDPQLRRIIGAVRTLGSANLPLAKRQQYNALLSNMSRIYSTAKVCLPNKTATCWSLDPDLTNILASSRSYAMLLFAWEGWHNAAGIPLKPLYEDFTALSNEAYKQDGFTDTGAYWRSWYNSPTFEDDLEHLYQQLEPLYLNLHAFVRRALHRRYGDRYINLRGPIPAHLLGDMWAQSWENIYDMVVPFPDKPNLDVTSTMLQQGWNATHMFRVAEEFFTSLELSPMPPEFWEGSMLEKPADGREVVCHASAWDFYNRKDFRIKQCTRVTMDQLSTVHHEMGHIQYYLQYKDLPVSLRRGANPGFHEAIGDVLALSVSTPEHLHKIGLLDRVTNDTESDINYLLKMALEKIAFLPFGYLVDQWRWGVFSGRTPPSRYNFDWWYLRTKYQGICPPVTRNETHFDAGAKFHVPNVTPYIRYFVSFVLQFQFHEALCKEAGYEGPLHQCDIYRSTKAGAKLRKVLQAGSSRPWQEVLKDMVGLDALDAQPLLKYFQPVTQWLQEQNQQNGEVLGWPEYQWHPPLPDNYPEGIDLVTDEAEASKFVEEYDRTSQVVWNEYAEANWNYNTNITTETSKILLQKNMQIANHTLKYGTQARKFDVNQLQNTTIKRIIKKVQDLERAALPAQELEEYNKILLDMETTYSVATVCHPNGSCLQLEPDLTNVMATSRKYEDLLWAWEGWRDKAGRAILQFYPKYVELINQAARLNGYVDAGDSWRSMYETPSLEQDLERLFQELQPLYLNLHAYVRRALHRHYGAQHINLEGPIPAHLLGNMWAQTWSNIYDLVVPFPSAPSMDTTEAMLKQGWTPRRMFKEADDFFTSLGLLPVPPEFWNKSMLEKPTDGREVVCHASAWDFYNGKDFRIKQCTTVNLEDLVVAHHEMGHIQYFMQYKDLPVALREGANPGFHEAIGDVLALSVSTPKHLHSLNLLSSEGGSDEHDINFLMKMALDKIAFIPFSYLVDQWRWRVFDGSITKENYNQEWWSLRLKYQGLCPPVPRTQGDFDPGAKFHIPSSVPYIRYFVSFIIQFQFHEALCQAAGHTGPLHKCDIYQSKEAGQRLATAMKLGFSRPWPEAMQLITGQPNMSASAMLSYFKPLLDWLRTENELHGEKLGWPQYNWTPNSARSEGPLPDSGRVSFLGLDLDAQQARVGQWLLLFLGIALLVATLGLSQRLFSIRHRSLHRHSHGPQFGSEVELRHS
smiles,measurement,setting,value
Cc1c(C#Cc2ccc(CN3CCC(CO)CC3)cc2)cc(C(F)F)c2cn(C(C(=O)Nc3nccs3)c3ncn4c3CCC43CC3)nc12 (centres undefined),inhibition,D(2) dopamine receptor [1],98%
same,AUC(0-t) at 24 h,[2],803 ng·h/mL
same,IC50,BaF3 [3],1 nM
same,inhibition in vivo at 10 mg/kg,BaF3 [4],70%
same,half-life,[5],396 min
same,inhibition,[6],91%
same,Activity,[7],Non-Toxic
same,IC50,Adenosine receptor A3,200 nM
same,inhibition in vivo at 10 mg/kg,NCI-H1975 [8],69%
same,inhibition,[9],94%
same,inhibition,[10],96%
same,bioavailability,[11],22%
same,inhibition in vivo at 10 mg/kg,BaF3 [12],84%
same,IC50,[13],1800 nM
same,inhibition,[14],90%
same,IC50,D(2) dopamine receptor [15],1000 nM
same,Tlast,[16],24 h
same,Cmax,[17],135 ng/mL
same,inhibition in vivo at 10 mg/kg,NCI-H1975 [18],100%
